Eight molecules from US20260008787A1, “FUSED RING KRAS INHIBITORS FOR TREATING DISEASE” (BLOSSOMHILL THERAPEUTICS, INC., priority 2022, published 2026) can be followed below.

The test system of assay [1] is GP2D (KRAS G12D). As to the kind of experiment: Cell proliferation assay (CellTiter-Glo, 72 hours), GP2D. As to conditions: GP2d, 72 h, 384-well, CellTiter-Glo 2.0. Format: cell-based. The method, then:
(§1) Two thousand KRAS mutant cells per well were seeded in 384-well white plate and then treated with indicated compounds for 72 hours at 37° C. and 5% CO2. Cell proliferation was measured using CellTiter-Glo 2.0 luciferase-based ATP detection assay (Promega, Madison, WI) following the manufacturer's protocol. IC50 values were determined using Prism software (GraphPad Software, San Diego, CA).
(ATP-based viability assays read luminescence as a measure of living cells.)

For assay [2], the system named is SW620 (KRAS G12V). The experiment in a line: Cell proliferation assay (CellTiter-Glo, 72 hours), SW620. Format: cell-based. As to conditions: Homo sapiens, SW-620, 72 h, 384-well, CellTiter-Glo 2.0. The method, then:
as §1

The target in assay [3] is KRAS G12V (Homo sapiens, UniProt P01116, G12V). As to the kind of experiment: biochemical.
The test system of assay [4] is AGS (G12D). As to the kind of experiment: Cell proliferation assay (CellTiter-Glo, 72 hours), AGS. Format: cell-based. As to conditions: 72 h, 384-well, CellTiter-Glo 2.0. The method, then:
as §1

Assay [5] deals with KRAS G12D (Homo sapiens, UniProt P01116, G12D). As to the kind of experiment: biochemical.

Where only a bound is given, the exact number is not on record here.

Sequence of KRAS G12V (P01116 1-188 isoform P01116-2 G12V): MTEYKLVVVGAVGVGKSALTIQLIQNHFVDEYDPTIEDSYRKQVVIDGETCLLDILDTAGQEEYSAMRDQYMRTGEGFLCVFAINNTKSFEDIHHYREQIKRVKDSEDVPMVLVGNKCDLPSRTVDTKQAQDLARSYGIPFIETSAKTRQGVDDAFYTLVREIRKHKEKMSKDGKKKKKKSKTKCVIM
Sequence of KRAS G12D (P01116 1-188 isoform P01116-2 G12D): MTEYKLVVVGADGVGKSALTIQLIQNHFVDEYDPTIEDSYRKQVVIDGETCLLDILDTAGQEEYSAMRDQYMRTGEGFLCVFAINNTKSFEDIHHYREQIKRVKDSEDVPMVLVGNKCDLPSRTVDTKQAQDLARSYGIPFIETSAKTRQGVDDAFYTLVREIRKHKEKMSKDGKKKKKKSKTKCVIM

As to `C#Cc1c(F)ccc2cc(O)cc(-c3nc4c5c(nc(OC[C@@]67CCCN6C[C@H](F)C7)nc5c3F)N3C[C@H](C#N)CC[C@H]3CO4)c12` [Example 118, (5aS,8R)-2-(8-ethynyl-7-fluoro-3-hydroxynaphthalen-1-yl)-1-fluoro-11-(((2R,7aS)-2-fluorotetrahydro-1H-pyrrolizin-7a(5H)-yl)methoxy)-5,5a,6,7,8,9-hexahydro-4-oxa-3,9a,10,12-tetraazabenzo[4,5]cyclohepta[1,2,3-de]naphthalene-8-carbonitrile], the IC50 (as a rule, the midpoint of a concentration-inhibition curve) in assay [1] is greater than 3000 nM; in assay [2], greater than 3000 nM; in assay [3] it was 58.9 nM; in assay [4], greater than 3000 nM; in assay [5] it was 52.5 nM.
With `CCc1c(F)ccc2cc(O)cc(-c3nc4c5c(nc(OC[C@@]67CCCN6C[C@H](F)C7)nc5c3F)N3CCCC(O)C3CO4)c12` (stereo partly drawn) [Example 119, 5-(8-ethyl-7-fluoro-3-hydroxynaphthalen-1-yl)-4-fluoro-2-{[(2R,7aS)-2-fluorotetrahydro-1H-pyrrolizin-7a(5H)-yl]methoxy}-8,8a,9,10,11,12-hexahydro-7-oxa-1,3,6,12a-tetraazabenzo[4,5]cyclohepta[1,2,3-de]naphthalen-9-ol], the IC50 in assay [1] was 103 nM; in assay [2], 307 nM; in assay [3] it was 2.16 nM; in assay [4], 258 nM; in assay [5] it was 2.48 nM.
As for `C#Cc1c(F)ccc2cc(O)cc(-c3nc4c5c(nc(OC[C@@]67CCCN6C[C@H](F)C7)nc5c3F)N3CCCCC3CC4)c12` (stereo partly drawn) [Example 121, 5-ethynyl-6-fluoro-4-(4-fluoro-2-{[(2R,7aS)-2-fluorotetrahydro-1H-pyrrolizin-7a(5H)-yl]methoxy}-8,8a,9,10,11,12-hexahydro-7H-1,3,6,12a-tetraazabenzo[4,5]cyclohepta[1,2,3-de]naphthalen-5-yl)naphthalen-2-ol], the IC50 in assay [1] was found to be 3.67 nM; in assay [2] it was 16.6 nM; in assay [3], 1.99 nM; in assay [4], 21.5 nM; in assay [5] it was 1.74 nM.
In the case of `C#Cc1c(F)ccc2cc(O)cc(-c3nc4c5c(nc(OC[C@@]67CCCN6C[C@H](F)C7)nc5c3F)NCCC4)c12` [Example 122, 5-ethynyl-6-fluoro-4-(4-fluoro-2-{[(2R,7aS)-2-fluorotetrahydro-1H-pyrrolizin-7a(5H)-yl]methoxy}-7,8,9,10-tetrahydro-1,3,6,10-tetraazacyclohepta[1,2,3-de]naphthalen-5-yl)naphthalen-2-ol], the IC50 in assay [1] is 2410 nM; in assay [2] it was 4900 nM; in assay [3], 16.9 nM; in assay [4], 5490 nM; in assay [5], 14.8 nM.
Regarding `C#Cc1c(F)ccc2cc(O)cc(-c3nc4c5c(nc(OC[C@@]67CCCN6C[C@H](F)C7)nc5c3F)N[C@@H](C3CCCO3)CO4)c12` (stereo partly drawn) [Example 126, 5-ethynyl-6-fluoro-4-((9R)-4-fluoro-2-(((2R,7aS)-2-fluorotetrahydro-1H-pyrrolizin-7a(5H)-yl)methoxy)-9-(tetrahydrofuran-2-yl)-9,10-dihydro-8H-7-oxa-1,3,6,10-tetraazacyclohepta[de]naphthalen-5-yl)naphthalen-2-ol], the IC50 in assay [1] is greater than 3000 nM; in assay [2], 109 nM; in assay [3], 30.2 nM; in assay [4] it was greater than 3000 nM; in assay [5], 111 nM.
As for `C#Cc1c(F)ccc2cc(O)cc(-c3nc4c5c(nc(OC[C@@]67CCCN6C[C@H](F)C7)nc5c3F)N(CC)[C@@H](C)CO4)c12` [Example 127, 4-[(9S)-10-ethyl-4-fluoro-2-{[(2R,7aS)-2-fluorotetrahydro-1H-pyrrolizin-7a(5H)-yl]methoxy}-9-methyl-9,10-dihydro-8H-7-oxa-1,3,6,10-tetraazacyclohepta[1,2,3-de]naphthalen-5-yl]-5-ethynyl-6-fluoronaphthalen-2-ol], the IC50 in assay [1] turned out to be 4.54 nM; in assay [2] it was 9.86 nM; in assay [3] it was 3.2 nM; in assay [4], 8.8 nM; in assay [5] it was 2.61 nM.
With `C#Cc1c(F)ccc2cc(O)cc(-c3nc4c5c(nc(OC[C@@]67CCCN6C[C@H](F)C7)nc5c3F)N3CCC[C@@H](O)[C@H]3CO4)c12` [compound 25, (8aR,9R)-5-(8-ethynyl-7-fluoro-3-hydroxynaphthalen-1-yl)-4-fluoro-2-{[(2R,7aS)-2-fluorotetrahydro-1H-pyrrolizin-7a(5H)-yl]methoxy}-8,8a,9,10,11,12-hexahydro-7-oxa-1,3,6,12a-tetraazabenzo[4,5]cyclohepta[1,2,3-de]naphthalen-9-ol], the IC50 in assay [1] is 76.4 nM; in assay [2], 654 nM; in assay [3] it was 2.16 nM; in assay [4], 166 nM; in assay [5] it was 2.03 nM.
For the molecule `C#Cc1c(F)ccc2cc(O)cc(-c3nc4c5c(nc(OC[C@@]67CCCN6C[C@H](F)C7)nc5c3F)N3CCC[C@H](O)[C@@H]3CO4)c12` [compound 103, (8aS,9S)-5-(8-ethynyl-7-fluoro-3-hydroxynaphthalen-1-yl)-4-fluoro-2-{[(2R,7aS)-2-fluorotetrahydro-1H-pyrrolizin-7a(5H)-yl]methoxy}-8,8a,9,10,11,12-hexahydro-7-oxa-1,3,6,12a-tetraazabenzo[4,5]cyclohepta[1,2,3-de]naphthalen-9-ol], the IC50 in assay [1] is 580 nM; in assay [2] it was greater than 3000 nM; in assay [3] it was 15.9 nM; in assay [4] it was 924 nM; in assay [5] it was 22.4 nM.
